One data set has as its target OCT1 (Homo sapiens, UniProt O15245). The data set is described as follows: Transporter substrate, OCT1. The class given is in vitro ADME. As to conditions: role: substrate. Here is the method:
(§1) Additionally, compound 760 was tested for its capability to act as a transporter substrate for various transporters, and was not found to be a transporter substrate for any of the tested transporters.

The next data set concerns GABAA. The data set is described as follows: Functional selectivity panel, GABAA. The class given is biochemical. As to conditions: up to 10 micromolar. Here is the method:
(§2) A broad panel of 78 recombinant targets was tested for pharmacologic activity in vitro through a variety of functional assays (Eurofins DiscoverX, USA), as part of the National Institute of Neurological Disorders and Stroke (NINDS) Preclinical Screening Platform for Pain (PSPP) program. The biological targets for the in vitro profiling have been selected based on avoiding opioid receptor stimulation and targets known to be associated with adverse events or targeted by drugs of abuse. […] For each test, a reference compound was evaluated at the target of interest as a positive control.

For the next data set, the target named is T1, Nav1.5 (Homo sapiens, UniProt Q14524).
T1 construct: Eurofins DiscoverX functional panel cells
T1 sequence (Q14524 whole entry): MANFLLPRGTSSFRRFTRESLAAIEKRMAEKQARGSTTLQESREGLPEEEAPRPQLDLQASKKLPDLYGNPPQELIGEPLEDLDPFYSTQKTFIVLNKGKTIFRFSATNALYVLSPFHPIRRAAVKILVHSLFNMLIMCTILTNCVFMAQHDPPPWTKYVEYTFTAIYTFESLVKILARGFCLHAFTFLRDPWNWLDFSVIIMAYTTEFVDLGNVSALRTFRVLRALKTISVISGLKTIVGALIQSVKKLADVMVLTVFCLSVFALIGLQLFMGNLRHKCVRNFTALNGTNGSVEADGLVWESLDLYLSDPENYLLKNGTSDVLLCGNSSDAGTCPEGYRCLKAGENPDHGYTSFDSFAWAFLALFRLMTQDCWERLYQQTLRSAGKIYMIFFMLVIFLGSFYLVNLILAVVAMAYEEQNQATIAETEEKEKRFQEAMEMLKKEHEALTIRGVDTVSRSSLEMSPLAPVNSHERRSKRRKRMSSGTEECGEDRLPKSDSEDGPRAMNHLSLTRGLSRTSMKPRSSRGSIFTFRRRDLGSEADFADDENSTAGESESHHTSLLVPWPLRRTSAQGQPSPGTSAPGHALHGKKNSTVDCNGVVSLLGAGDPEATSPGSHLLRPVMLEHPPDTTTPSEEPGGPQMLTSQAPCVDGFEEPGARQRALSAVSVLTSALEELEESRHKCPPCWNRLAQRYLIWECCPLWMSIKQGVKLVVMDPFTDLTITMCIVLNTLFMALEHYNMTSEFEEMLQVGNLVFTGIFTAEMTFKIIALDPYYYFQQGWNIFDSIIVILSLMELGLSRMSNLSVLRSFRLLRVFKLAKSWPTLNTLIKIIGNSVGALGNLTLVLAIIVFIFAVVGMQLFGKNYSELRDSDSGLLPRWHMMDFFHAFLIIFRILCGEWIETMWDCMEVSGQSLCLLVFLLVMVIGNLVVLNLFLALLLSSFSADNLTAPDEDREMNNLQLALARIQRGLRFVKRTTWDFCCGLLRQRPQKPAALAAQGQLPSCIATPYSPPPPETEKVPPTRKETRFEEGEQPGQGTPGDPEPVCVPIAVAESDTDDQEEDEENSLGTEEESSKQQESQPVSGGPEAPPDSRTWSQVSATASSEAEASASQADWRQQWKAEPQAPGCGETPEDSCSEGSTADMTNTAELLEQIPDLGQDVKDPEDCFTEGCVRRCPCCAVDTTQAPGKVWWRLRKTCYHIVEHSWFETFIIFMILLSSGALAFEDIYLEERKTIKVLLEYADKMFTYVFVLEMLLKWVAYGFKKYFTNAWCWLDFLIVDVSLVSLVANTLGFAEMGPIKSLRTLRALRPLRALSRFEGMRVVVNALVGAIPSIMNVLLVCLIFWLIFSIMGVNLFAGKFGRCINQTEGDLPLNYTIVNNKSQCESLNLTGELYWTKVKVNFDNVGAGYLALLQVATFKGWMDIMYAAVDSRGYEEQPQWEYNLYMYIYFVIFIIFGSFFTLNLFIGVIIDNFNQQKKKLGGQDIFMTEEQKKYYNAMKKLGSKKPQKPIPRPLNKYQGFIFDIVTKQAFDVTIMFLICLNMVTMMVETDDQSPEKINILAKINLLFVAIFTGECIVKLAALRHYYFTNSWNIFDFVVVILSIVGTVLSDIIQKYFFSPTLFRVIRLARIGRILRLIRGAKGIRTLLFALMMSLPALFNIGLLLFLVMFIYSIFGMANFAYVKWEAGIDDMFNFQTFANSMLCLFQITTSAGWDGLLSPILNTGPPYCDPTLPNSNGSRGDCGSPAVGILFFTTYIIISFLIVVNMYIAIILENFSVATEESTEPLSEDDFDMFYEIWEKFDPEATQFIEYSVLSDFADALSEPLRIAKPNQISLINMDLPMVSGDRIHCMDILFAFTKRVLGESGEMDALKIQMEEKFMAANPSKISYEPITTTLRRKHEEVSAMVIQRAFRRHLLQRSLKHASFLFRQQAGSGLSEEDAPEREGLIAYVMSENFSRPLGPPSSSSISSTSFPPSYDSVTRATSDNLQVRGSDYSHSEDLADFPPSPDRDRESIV
The data set is described as follows: Functional selectivity panel, Nav1.5. The class given is biochemical. As to conditions: up to 10 micromolar. The protocol:
as §2

For the next data set, the system named is Cannabinoid CB1-2. The data set is described as follows: Functional screening panel, Cannabinoid CB1-2. It is filed as biochemical. As to conditions: up to 10 micromolar. Here is the method: as §2
The next data set has as its system BCRP. The data set is described as follows: Transporter substrate, BCRP. The class given is in vitro ADME. As to conditions: role: substrate. Here is the method: as §1
The target in the next data set is T2, muscarinic m2 receptor (Homo sapiens, UniProt P08172).
T2 construct: Eurofins DiscoverX, USA
T2 sequence (P08172 whole entry): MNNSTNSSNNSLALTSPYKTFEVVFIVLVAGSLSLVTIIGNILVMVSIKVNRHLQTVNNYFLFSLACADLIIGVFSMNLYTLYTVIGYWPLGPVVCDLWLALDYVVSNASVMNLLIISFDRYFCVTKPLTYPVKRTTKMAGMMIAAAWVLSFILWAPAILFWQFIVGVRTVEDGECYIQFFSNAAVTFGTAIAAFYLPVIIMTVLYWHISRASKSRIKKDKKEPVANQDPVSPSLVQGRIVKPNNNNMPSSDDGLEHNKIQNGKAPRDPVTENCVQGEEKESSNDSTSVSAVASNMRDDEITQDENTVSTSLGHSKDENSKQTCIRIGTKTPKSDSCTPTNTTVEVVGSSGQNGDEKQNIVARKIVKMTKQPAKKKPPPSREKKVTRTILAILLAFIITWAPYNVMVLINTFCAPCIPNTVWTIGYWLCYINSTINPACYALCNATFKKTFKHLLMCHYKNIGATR
The data set is described as follows: Functional selectivity panel, muscarinic m2 receptor. The class given is biochemical. The protocol: as §2

Data set [1] can be described thus: Plasma protein binding, human. It is filed as in vitro ADME. As to conditions: read-out: PPB fu (human). The protocol: Incubation: Test compounds or the positive control warfarin were introduced into 10% plasma samples (Sourced from WuXi DMPK labs or from commercial vendors) to a concentration of 2 μM. A portion of 150 μL of the compound-containing plasma sample was added to one chamber of a 96-well equilibrium HTD dialysis plate. An equal volume of dialysis buffer was added to the corresponding chamber. A plasma sample was also taken before the incubation and designated as the T0 sample, serving for recovery calculation. The plate was incubated in a humidified 5% CO2 incubator at 37° C. for 4 hours. Each incubation was set up in triplicate.
Sample extraction and preparation: Following the incubation period, samples of 50 μL were drawn from both the plasma side and the buffer side and each was mixed with an equal volume of blank plasma. All matrix-matched samples were quenched using a stop solution containing an internal standard (IS).
Sample Analysis: The samples were subsequently analyzed by LC-MS/MS. The concentrations of the test compound in plasma and buffer samples were quantified based on the peak area ratio of analyte to the internal standard, with no requirement for a standard curve.

Another data set concerns the target T3, adrenergic α2A (Homo sapiens, UniProt P08913).
T3 construct: Eurofins DiscoverX, USA
The data set is described as follows: Functional selectivity panel, adrenergic α2A. The class given is biochemical. The protocol: as §2

A further data set addresses T4, 5-HT1B (Homo sapiens, UniProt P28222).
T4 construct: Eurofins DiscoverX, USA
The data set is described as follows: Functional selectivity panel, 5-HT1B. The class given is biochemical. The protocol: as §2

The next data set relates to rat DRGs. The data set is described as follows: NGF-treated rat DRG neuropathic model, capsaicin-induced tetanic burst. As to conditions: NGF 100 ng/ml pretreated. It is filed as cell-based. Here is the method: DRGs treated with NGF show tetanic action potential burst in response to CAP application, mimicking neuropathic like response. See, Background Art FIG. 8A. NGF enhances TRPV1 function using Calcium-dependent fluorescence, F, relative to maximal fluorescence, Fmax, as a function of time from a single HEK293 cell stably transfected with TrkA and transiently transfected with hTRPV1. Pulses of capsaicin (100 nM, applied as shown at top) elicited submaximal increases in [Ca]i. Exposure to NGF (100 ng/mL, see top) enhanced the capsaicin induced calcium increase. Arrows show responses used for calculation of sensitization ratio.

In the next data set the test system is rat DRG neurons. The experiment in a line: Rat DRG neurons, current-evoked action potential firing. The class given is cell-based. From the text: rDRGs isolation and primary cell culture: Briefly, rat DRGs from all spinal levels were carefully removed and collected in HBSS on ices, connective tissue of the epineurium surrounding the ganglion was removed and cells were dissociated using Collagenase-II and trypsin dissociation solutions. DRGs were dissociated further, passed through glass Pasteur pipettes to obtain single cells. Then dissociation solution was changed to 5% FBS containing DRG neuronal culture medium and plated onto ECL coated 12 mm cover glass.
Additional rDRGs experiments were performed using Lonza primary neonatal rat (Sprague Dawley neonatal; P2,3) DRG neurons (R-DRG-505, Lonza) plated and cultured according to the manufacturer.
Electrophysiology: Cells were used for electrophysiological recording at least 48 hours following rDRG isolation or at least 5 days following cryopreserved rDRG thawing. Round small neurons (20-40 μm in diameter) were selected for electrophysiology recordings, to select for small nociceptive neurons that propagate pain sensation in vivo and that are expressing both Kv7.2/3 and TRPV1 targets. Membrane excitability was monitored using current clamp configuration of the whole-cell patch-clamp technique. Positive current steps of different amplitude were injected (400 ms) to induce spikes trains before and following compound application.

Entries after “also recorded” stand apart in the source; their conditions may differ.

Chain of OCT1 (O15245 whole entry): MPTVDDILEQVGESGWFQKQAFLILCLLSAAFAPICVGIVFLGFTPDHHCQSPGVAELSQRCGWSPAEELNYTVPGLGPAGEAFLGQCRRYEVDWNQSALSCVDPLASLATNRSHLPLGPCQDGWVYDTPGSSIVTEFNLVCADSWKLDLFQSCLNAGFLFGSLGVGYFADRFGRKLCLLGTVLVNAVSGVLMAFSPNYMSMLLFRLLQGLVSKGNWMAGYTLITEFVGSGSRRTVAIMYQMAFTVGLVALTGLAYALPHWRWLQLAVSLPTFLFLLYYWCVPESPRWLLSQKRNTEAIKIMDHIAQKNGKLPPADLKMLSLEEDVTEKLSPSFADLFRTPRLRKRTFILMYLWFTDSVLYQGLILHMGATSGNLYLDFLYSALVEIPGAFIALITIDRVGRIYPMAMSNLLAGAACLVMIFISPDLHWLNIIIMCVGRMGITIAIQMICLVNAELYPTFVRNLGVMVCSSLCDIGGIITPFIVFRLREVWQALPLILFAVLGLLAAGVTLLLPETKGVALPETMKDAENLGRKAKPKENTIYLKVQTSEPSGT
T3 sequence (P08913 whole entry): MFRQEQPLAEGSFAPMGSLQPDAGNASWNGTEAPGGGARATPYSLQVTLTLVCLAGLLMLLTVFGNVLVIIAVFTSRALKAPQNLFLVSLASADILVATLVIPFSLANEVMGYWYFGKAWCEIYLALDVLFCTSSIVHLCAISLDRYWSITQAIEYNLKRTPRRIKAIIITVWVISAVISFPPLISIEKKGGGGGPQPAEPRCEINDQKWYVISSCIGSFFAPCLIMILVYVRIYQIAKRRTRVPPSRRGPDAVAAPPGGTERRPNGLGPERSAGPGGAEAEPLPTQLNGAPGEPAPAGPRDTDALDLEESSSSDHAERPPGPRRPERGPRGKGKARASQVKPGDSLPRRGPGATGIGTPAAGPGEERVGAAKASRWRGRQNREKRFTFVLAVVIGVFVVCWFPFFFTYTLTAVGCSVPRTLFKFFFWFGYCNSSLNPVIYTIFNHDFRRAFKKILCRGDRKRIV
T4 sequence (P28222 whole entry): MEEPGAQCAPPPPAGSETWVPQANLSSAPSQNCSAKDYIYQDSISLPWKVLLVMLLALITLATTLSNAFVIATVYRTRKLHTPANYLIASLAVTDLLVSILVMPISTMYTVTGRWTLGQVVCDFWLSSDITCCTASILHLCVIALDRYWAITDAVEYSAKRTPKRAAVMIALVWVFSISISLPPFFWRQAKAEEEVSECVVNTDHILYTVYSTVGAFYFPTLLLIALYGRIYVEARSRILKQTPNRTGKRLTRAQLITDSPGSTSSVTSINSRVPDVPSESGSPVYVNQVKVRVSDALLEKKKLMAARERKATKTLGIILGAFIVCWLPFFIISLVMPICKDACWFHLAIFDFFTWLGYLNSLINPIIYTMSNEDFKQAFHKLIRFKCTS

Turning to `O=C(Cc1nccc(-n2cc(Cl)c3cc(Cl)cc(Cl)c32)n1)NC1COCC1O` (centres unmarked) [Compound 760], at OCT1, the OCT1 substrate result is listed as “not a transporter substrate”. For the same compound, the “Effect on GABAA” value in the data set with GABAA is given as “no effect”. Moreover, on Nav1.5, the “Effect on Nav1.5” value is on record as “no effect”. The “Effect on Cannabinoid CB1-2” value in the data set on Cannabinoid CB1-2 was “no effect”. The BCRP substrate entry in the data set with BCRP is “not a transporter substrate or a poor substrate”.

For `O=C(Cc1cncc(-n2cc(Cl)c3cc(Cl)cc(Cl)c32)c1)N[C@@H]1COC[C@H]1O` [Compound 661], the values for the IC50 against muscarinic m2 receptor, against adrenergic α2A and at 5-HT1B were 5 µM, 6 µM and 10 µM, respectively. The fraction unbound at 4 h, 2 µM in data set [1] is 0.003.

For `Cc1cn(-c2ccc(F)c(CC(=O)NCC(C)(C)O)c2)c2c(Cl)cc(Cl)cc12` [Compound 421-6], in the data set on rat DRGs, the “Effect on capsaicin induced tetanic action potential burst” value is given as “alleviates the capsaicin induced tetanic action potential burst at levels below EC50; also recorded: reversible inhibition”. In addition, the “Inhibition of current induced AP response” value in the data set with rat DRG neurons (100 nM) is recorded as 10.1±3.4%; in the data set on rat DRG neurons (500 nM), 51.2±8.4%. For the same compound, the “Inhibition of AP response to current” value in the data set on rat DRG neurons (2 μM) was 77.7±5.6%. Moreover, in the data set with rat DRG neurons (read-out: IC50 for inhibition of current induced AP responses), the IC50 (usually the concentration needed to halve the response being measured) is around 500 nM.

The values are drawn from patent US20260327211A1, “MODULATORS OF A POTASSIUM CHANNEL AND OF TRPV1 CHANNEL AND USES THEREOF” (Bsense Bio Therapeutics Ltd., priority 2023, published 2026).
